The format of data set [1] is physicochemical. On the procedure:
HYNIC-iPSMA (37.5 μg) was formulated as a lyophilized dosage form containing 10 mg of EDDA, 20 mg of tricine, 20 μg of stannous chloride and 50 mg of mannitol. This formulation, on being reconstituted with 1 mL of 0.2 M phosphate buffer solution, pH 7 and 1 mL of solution of sodium pertechnetate (^99mTcO4Na), obtained in situ from a generator of ^99Mo/^99mTc, produces the compound to be patented ^99mTc-EDDA/HYNIC-iPSMA (FIG. 1) with radiochemical purity greater than 98% determined by reverse-phase HPLC, which has the corresponding radiochromatogram (FIG. 3).
(§1) The radiopharmaceutical remains stable with radiochemical purity greater than 95%, 24 h after labeling. In-vitro tests of stability in human serum show binding to serum proteins of 8.3±2.1% and high radiochemical stability (>90%).

The format of data set [2] is in vitro ADME, human. On the procedure:
as §1

The subject of a further data set is LNCaP tumors. More on the design: species or system mice. To be noted: mouse, in vivo. An excerpt:
(§2) This image confirms, and is the main evidence, that because of its increased properties of affinity owing to the lipophilicity of the incorporated HYNIC molecule, ^99mTc-EDDA/HYNIC-iPSMA is able to equal the high imaging sensitivity of the PET radionuclides in the detection of tumoral lesions that overexpress PSMA.

For data set [3] the following is noted: human, in vivo.
From the text: as §2

Data set [4] has as its target T1, PSMA overexpressed in prostate cancer cells (Homo sapiens, UniProt Q04609).
T1 construct: detect in vivo PSMA overexpressed in prostate cancer cells; from tissue; host or cells: tumours and metastases in prostate cancer patients (in vivo SPECT/PET)
Briefly: SPECT/PET imaging in patients with prostate cancer. The data set is classed as in vivo. To be noted: for detection of tumors and metastases (PET and SPECT image, FIG. 6): same patient with advanced metastatic prostate cancer given both radiopharmaceuticals.
From the text: as §2

Data set [5] deals with T2, PSMA protein (LNCaP cells) (Homo sapiens, UniProt Q04609).
T2 construct: endogenous in cells; host or cells: LNCaP
T2 sequence (Q04609 whole entry): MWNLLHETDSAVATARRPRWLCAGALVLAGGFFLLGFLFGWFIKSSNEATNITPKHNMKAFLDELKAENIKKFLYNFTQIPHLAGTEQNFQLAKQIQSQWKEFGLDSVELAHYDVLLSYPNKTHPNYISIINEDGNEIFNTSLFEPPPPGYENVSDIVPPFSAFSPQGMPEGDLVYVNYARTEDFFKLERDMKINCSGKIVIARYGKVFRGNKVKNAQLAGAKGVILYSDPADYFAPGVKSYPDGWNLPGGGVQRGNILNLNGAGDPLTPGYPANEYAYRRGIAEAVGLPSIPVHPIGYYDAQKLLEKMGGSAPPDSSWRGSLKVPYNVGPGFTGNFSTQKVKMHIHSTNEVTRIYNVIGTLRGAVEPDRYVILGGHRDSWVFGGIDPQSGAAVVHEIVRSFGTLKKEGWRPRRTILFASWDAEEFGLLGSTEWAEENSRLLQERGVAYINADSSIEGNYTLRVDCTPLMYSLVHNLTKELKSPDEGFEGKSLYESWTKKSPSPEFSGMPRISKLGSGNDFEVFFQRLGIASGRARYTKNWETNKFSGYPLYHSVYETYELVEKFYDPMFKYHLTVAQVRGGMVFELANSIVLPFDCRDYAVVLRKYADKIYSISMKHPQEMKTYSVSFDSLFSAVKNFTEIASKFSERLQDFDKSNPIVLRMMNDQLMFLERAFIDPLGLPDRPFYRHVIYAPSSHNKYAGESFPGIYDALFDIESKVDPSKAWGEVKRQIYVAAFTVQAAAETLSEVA
Briefly: affinity by studies of competence in PSMA-positive cancer cells (LNCaP). The data set is classed as binding. To be noted: competition in LNCaP cells.

Another data set has as its system balb-C laboratory mice. In words: toxicity in balb-C laboratory mice. The data set is classed as in vivo. Particulars: dose of 40 mg/kg.
From the text: as §2

The term IC50 denotes the point on the concentration scale where inhibition reaches its midpoint.

T1 sequence (Q04609 whole entry): as above

Take “99mTc-ethylenediaminediacetic acid/hydrazinonicotinamide-inhibitor of prostate-specific membrane antigen [99mTc-EDDA/HYNIC-iPSMA]”: in data set [1], the “radiochemical purity 24 h after labeling (stability)” value is “greater than 95%”. Also, in data set [2], the “radiochemical stability in human serum” value is above 90%. In addition, in the data set with LNCaP tumors, the “capture in the tumors” value is 8.7±1.3 % ID/g and the route of elimination entry is reported as “mainly with elimination by the renal route”. For the same compound, in data set [3], the “biokinetics (clearance and organ capture)” value was “rapid clearance from the blood with greater capture and renal excretion, lower hepatic capture and high capture in the parathyroid, salivary and lacrimal glands”; the mean effective dose is on record as 4±2 mSv. In addition, in data set [4] (patient with prostate cancer), the “ability to detect in vivo overexpressed PSMA (SPECT image, FIG. 5)” value was “confirming the ability of the radiopharmaceutical to detect in vivo PSMA overexpressed in prostate cancer cells”. For the same compound, the “detection of tumors and metastases (PET and SPECT image, FIG. 6)” value in data set [4] is “detect tumors and metastases of prostate cancer with high sensitivity”.
Regarding `O=C([O-])CN1CCN(CC(=O)[O-])CCN(CC(=O)NC[C@H]2CC[C@H](C(=O)N[C@@H](Cc3ccc4ccccc4c3)C(=O)NCCCC[C@H](NC(=O)N[C@@H](CCC(=O)O)C(=O)O)C(=O)O)CC2)CCN(CC(=O)[O-])CC1.[68Ga+3]` [68Ga-PSMA-617, reference compound], the “detection of tumors and metastases (PET and SPECT image, FIG. 6)” value in data set [4] was “detect tumors and metastases of prostate cancer with high sensitivity”.
In the case of `NNc1ccc(C(=O)N[C@@H](Cc2ccc3ccccc3c2)C(=O)NCCCC[C@H](NC(=O)N[C@@H](CCC(=O)O)C(=O)O)C(=O)O)cn1` [HYNIC-iPSMA, Glu-NH—CO—NH-Lys(β-naphthyl alanine)-HYNIC], the IC50 in data set [5] was 2.9 ± 0.7 nM. Further, the “toxicity or adverse effects” value in the data set with balb-C laboratory mice is on record as “did not display toxicity or adverse effects”.

The record behind these values is US11547767B2, “99mTc-EDDA/HYNIC-iPSMA as a radiopharmaceutical for detecting the overexpression of prostate-specific membrane antigen” (INSTITUTO NACIONAL DE INVESTIGACIONES NUCLEARES, priority 2016, dated 2023).
